Reference: PubChem BioAssay AID248 (DTP/NCI, 2004)
Values joined by “and” are separate entries in the source; they are usually repeats but may differ in a detail not shown here. Equal entries are not always repeated. Inconclusive results and toxic doses are left out. Cut-off read from the data, not from the text of the source: active = T/C of 150% or more; inactive = T/C below 125%.

Tested on: L1210 leukemia ip in BDF1 mice, survival T/C
Experiment: NCI In Vivo Anticancer Drug Screen. Data for tumor model L1210 Leukemia (intraperitoneal) in B6D2F1 (BDF1) mice
Conditions: endpoint: mean survival time, higher = longer survival
Procedure, shortened: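 Transplanted-tumor mice were given test agent; controls received vehicle only. Survival readings from the two groups were divided (treated over control).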

[1] = dose: 100.0 mg/kg/injection, schedule: Q01DX001 (ip), vehicle: Klucel (hydroxypropylcellulose) (HPC)
[2] = dose: 100.0 mg/kg/injection, schedule: Q01DX009 (ip), vehicle: Klucel (hydroxypropylcellulose) (HPC)
[3] = dose: 100.0 mg/kg/injection, schedule: Q04DX003 (ip), vehicle: Klucel (hydroxypropylcellulose) (HPC)
[4] = dose: 200.0 mg/kg/injection, schedule: Q01DX001 (ip), vehicle: Klucel (hydroxypropylcellulose) (HPC)
[5] = dose: 200.0 mg/kg/injection, schedule: Q01DX009 (ip), vehicle: Klucel (hydroxypropylcellulose) (HPC)
[6] = dose: 200.0 mg/kg/injection, schedule: Q04DX003 (ip), vehicle: Klucel (hydroxypropylcellulose) (HPC)
[7] = dose: 400.0 mg/kg/injection, schedule: Q01DX001 (ip), vehicle: Klucel (hydroxypropylcellulose) (HPC)
[8] = dose: 400.0 mg/kg/injection, schedule: Q04DX003 (ip), vehicle: Klucel (hydroxypropylcellulose) (HPC)
[9] = dose: 100.0 mg/kg/injection, schedule: Q04DX002 (ip), vehicle: Klucel (hydroxypropylcellulose) (HPC)
[10] = dose: 200.0 mg/kg/injection, schedule: Q04DX002 (ip), vehicle: Klucel (hydroxypropylcellulose) (HPC)
[11] = dose: 400.0 mg/kg/injection, schedule: Q01DX009 (ip), vehicle: Klucel (hydroxypropylcellulose) (HPC)
[12] = dose: 400.0 mg/kg/injection, schedule: Q04DX002 (ip), vehicle: Klucel (hydroxypropylcellulose) (HPC)
[13] = dose: 100.0 mg/kg/injection, schedule: Q04DX003 (ip), vehicle: saline with Tween-80
[14] = dose: 200.0 mg/kg/injection, schedule: Q01DX009 (ip), vehicle: saline with Tween-80
[15] = dose: 200.0 mg/kg/injection, schedule: Q04DX003 (ip), vehicle: saline with Tween-80
[16] = dose: 400.0 mg/kg/injection, schedule: Q01DX009 (ip), vehicle: saline with Tween-80
[17] = dose: 400.0 mg/kg/injection, schedule: Q04DX003 (ip), vehicle: saline with Tween-80
[18] = dose: 100.0 mg/kg/injection, schedule: Q04DX002 (ip), vehicle: saline with Tween-80
[19] = dose: 200.0 mg/kg/injection, schedule: Q04DX002 (ip), vehicle: saline with Tween-80
[20] = dose: 100.0 mg/kg/injection, schedule: Q01DX009 (ip), vehicle: saline with Tween-80

Measured: T/C

O=C(NC(=O)C(Cl)Cl)Nc1cccc2c1-c1ccccc1C2
inactive: [1] 94 % of control | [2] 108 % of control | [3] 88 % of control | [4] 97 % of control | [5] 100 % of control | [6] 92 % of control | [7] 92 % of control | [8] 93 % of control

CC(C)c1cccc(C(C)C)c1OC(=O)Nc1ccccc1
inactive: [1] 101 % of control | [2] 97 % of control | [9] 95 % of control and 102 % of control | [3] 116 % of control | [4] 88 % of control | [5] 98 % of control and 87 % of control | [10] 97 % of control and 108 % of control | [6] 100 % of control | [7] 87 % of control | [11] 103 % of control and 113 % of control | [12] 102 % of control and 90 % of control | [8] 108 % of control

COC(OC)c1cc(=O)n(C)c(=O)[nH]1
inactive: [13] 104 % of control | [14] 93 % of control | [15] 104 % of control | [16] 89 % of control | [17] 100 % of control

Cc1cccc(C=O)c1
inactive: dose: 100.0 mg/kg/injection, schedule: Q01DX001 (ip), vehicle: saline 102 % of control | dose: 200.0 mg/kg/injection, schedule: Q01DX001 (ip), vehicle: saline 96 % of control | dose: 400.0 mg/kg/injection, schedule: Q01DX001 (ip), vehicle: saline 96 % of control

OCCNCc1ccc2ccccc2c1
inactive: dose: 150.0 mg/kg/injection, schedule: Q01DX015 (ip), vehicle: saline 90 % of control

CCCCCCCCCCCCCCCCCC[Se]CCCCCCCCCCCCCCCCCC
inactive: [13] 88 % of control | [15] 92 % of control | [17] 93 % of control

CC(=O)OC1OC(COC(=O)c2ccc([N+](=O)[O-])cc2)C(NC(=O)C(F)(F)F)C1OC(C)=O (stereo not drawn)
inactive: dose: 100.0 mg/kg/injection, schedule: Q04DX003 (ip), vehicle: saline 90 % of control | dose: 200.0 mg/kg/injection, schedule: Q04DX003 (ip), vehicle: saline 96 % of control | dose: 400.0 mg/kg/injection, schedule: Q04DX003 (ip), vehicle: saline 95 % of control

C/C=C/C=C/COC(=O)C(C)(C)C
inactive: dose: 50.0 mg/kg/injection, schedule: Q04DX002 (ip), vehicle: saline 103 % of control | dose: 100.0 mg/kg/injection, schedule: Q04DX002 (ip), vehicle: saline 95 % of control and 96 % of control | dose: 200.0 mg/kg/injection, schedule: Q04DX002 (ip), vehicle: saline 98 % of control | dose: 400.0 mg/kg/injection, schedule: Q04DX002 (ip), vehicle: saline 96 % of control and 107 % of control

CCNC(C)(C)C(SS)c1ccc(Br)cc1 (stereo not drawn)
inactive: dose: 6.25 mg/kg/injection, schedule: Q01DX009 (ip), vehicle: water 98 % of control | dose: 12.5 mg/kg/injection, schedule: Q01DX009 (ip), vehicle: water 96 % of control | dose: 25.0 mg/kg/injection, schedule: Q01DX009 (ip), vehicle: water 94 % of control | dose: 50.0 mg/kg/injection, schedule: Q01DX009 (ip), vehicle: water 94 % of control and 91 % of control | dose: 100.0 mg/kg/injection, schedule: Q01DX009 (ip), vehicle: water 101 % of control | dose: 200.0 mg/kg/injection, schedule: Q01DX009 (ip), vehicle: water 93 % of control | dose: 400.0 mg/kg/injection, schedule: Q01DX009 (ip), vehicle: water 93 % of control

O=c1[nH]c2nc3ccccc3nc2c(=O)n1OS(=O)(=O)c1ccccc1
inactive: [2] 96 % of control | [5] 100 % of control | [11] 98 % of control

CCCCCCCC/C=C\CCCCCCCCOC(=O)Cc1ccc(N(CCCl)CCCl)cc1
inactive: dose: 100.0 mg/kg/injection, schedule: Q01DX005 (ip), vehicle: Klucel (hydroxypropylcellulose) (HPC) 119 % of control | [9] 121 % of control | dose: 200.0 mg/kg/injection, schedule: Q01DX005 (ip), vehicle: Klucel (hydroxypropylcellulose) (HPC) 115 % of control | [10] 117 % of control | [12] 121 % of control

CC(C)(SCCc1ccncc1)C(N)C(=O)O (stereo not drawn)
inactive: [3] 97 % of control | [6] 92 % of control | [8] 94 % of control

O=C(Nc1cccc(C(F)(F)F)c1)Oc1ccccc1F
inactive: [2] 91 % of control | [5] 92 % of control

CC/C=C(/C#N)CC
inactive: [18] 104 % of control | [19] 93 % of control

CCOP1(=O)NC(=O)C=C(C)N1 (stereo not drawn)
inactive: dose: 60.0 mg/kg/injection, schedule: Q04DX002 (ip), vehicle: sodium bicarbonate 102 % of control | dose: 120.0 mg/kg/injection, schedule: Q04DX002 (ip), vehicle: sodium bicarbonate 97 % of control

COC(=O)/C(=C1/OC(=O)C(c2ccccc2)=C1O)c1ccccc1
inactive: dose: 25.0 mg/kg/injection, schedule: Q01DX009 (ip), vehicle: saline with Tween-80 93 % of control | dose: 50.0 mg/kg/injection, schedule: Q01DX009 (ip), vehicle: saline with Tween-80 95 % of control | [20] 93 % of control | [13] 100 % of control

O=C1CC(=O)N(c2ccccc2)O1
inactive: [13] 92 % of control | [15] 112 % of control | [17] 91 % of control

COc1ccc(-n2c(=O)c(N=Nc3ccccc3)c(O)n(-c3ccccc3OC)c2=S)cc1
inactive: dose: 12.5 mg/kg/injection, schedule: Q01DX001 (ip), vehicle: saline with Tween-80 101 % of control | dose: 25.0 mg/kg/injection, schedule: Q01DX001 (ip), vehicle: saline with Tween-80 90 % of control | dose: 50.0 mg/kg/injection, schedule: Q01DX001 (ip), vehicle: saline with Tween-80 94 % of control

CCSCCC(C)(N)C(=O)O (stereo not drawn)
inactive: [9] 97 % of control | [10] 93 % of control | [12] 89 % of control

CC(=O)Oc1ccc(N(CCO)CCO)cc1OC(C)=O
inactive: dose: 1.17 mg/kg/injection, schedule: Q01DX001 (ip), vehicle: water 103 % of control | dose: 2.34 mg/kg/injection, schedule: Q01DX001 (ip), vehicle: water 97 % of control | dose: 4.68 mg/kg/injection, schedule: Q01DX001 (ip), vehicle: water 100 % of control

ON=C1CCCCCCC1
inactive: dose: 12.5 mg/kg/injection, schedule: Q04DX002 (ip), vehicle: Klucel (hydroxypropylcellulose) (HPC) 105 % of control | dose: 25.0 mg/kg/injection, schedule: Q04DX002 (ip), vehicle: Klucel (hydroxypropylcellulose) (HPC) 96 % of control | dose: 50.0 mg/kg/injection, schedule: Q04DX002 (ip), vehicle: Klucel (hydroxypropylcellulose) (HPC) 101 % of control

CC(=O)Nc1cc(Cl)c2[nH]cnc2n1
inactive: dose: 88.0 mg/kg/injection, schedule: Q01DX001 (ip), vehicle: Klucel (hydroxypropylcellulose) (HPC) 100 % of control | [1] 101 % of control | dose: 100.0 mg/kg/injection, schedule: Q04DX003 (ip), vehicle: water 110 % of control | dose: 133.0 mg/kg/injection, schedule: Q01DX001 (ip), vehicle: Klucel (hydroxypropylcellulose) (HPC) 90 % of control | [4] 95 % of control | dose: 200.0 mg/kg/injection, schedule: Q04DX003 (ip), vehicle: water 115 % of control | dose: 300.0 mg/kg/injection, schedule: Q01DX001 (ip), vehicle: Klucel (hydroxypropylcellulose) (HPC) 97 % of control

N#CCCOCC[CH2][Sn]([c]1ccccc1)([c]1ccccc1)[c]1ccccc1
inactive: [18] 94 % of control | [19] 94 % of control | dose: 400.0 mg/kg/injection, schedule: Q04DX002 (ip), vehicle: saline with Tween-80 91 % of control

CCCCCCCCCCCCCCCCCCO
inactive: [20] 99 % of control | [14] 92 % of control | [16] 87 % of control

O=C1c2cccc([N+](=O)[O-])c2C(=O)C1c1ccccn1 (stereo not drawn)
inactive: [13] 101 % of control | [15] 90 % of control | [17] 101 % of control
